Experimental data published in patent US9090667B2, “Cyclic peptide from Nonomuraea sp., process for the production thereof, and pharmaceutical composition for the prevention or treatment of mycobacteria related disease comprising the same” (priority 2011, dated 2015).
≈ marks a conversion by molar mass, not a printed value. Read-outs that look alike come from different tables or passages of the source. Numbered stars: 1 amine (or outer) side, 2 acyl side, 3 side chain; on linkers, the order of the positions; unused ones are H or OH. Bridge positions count the residues as written; N and C are the ends. Square brackets hold non-standard residues; d marks the D form. Peptide text beside a SMILES is read from it. * marks the point of attachment. ξ: configuration not given here. NMeTrp(4-OMe) = CN[CH](Cc1c[nH]c2cccc(OC)c12)C(=O)O; X1 = O=C(C(N[*:1])C(O)c1ccccc1)[*:2]; NMeI = CC[CH](C)[CH](NC)C(=O)O; ξNMe2Val = CC(C)C(C(=O)*)N(C)C; NMeT = CN[CH](C(=O)O)[CH](C)O; NMeL = CN[CH](CC(C)C)C(=O)O; NMeV = CN[CH](C(=O)O)C(C)C

How the values were obtained:
Nonomuraea sp. MJM5123 = assay: Antibiotic resistance test of the producing strain; assay type: cell-based; conditions: ISP2 medium, 2 weeks at 28° C.; for Growth in the presence of antibiotics: 50 μg/ml
Description: To test for melanoid pigments, peptone yeast extract iron agar (ISP6) and tyrosine agar (ISP7, with or without tyrosine) was used. Temperature range, NaCl tolerance and pH range for growth was determined on ISP3 medium and antibiotic resistance test was performed on ISP2 medium for 2 weeks at 28° C.

M. tuberculosis H37Rv [1] = test system: M. tuberculosis H37Rv
[2] = test system: nonreplicating M. tuberculosis; assay type: cell-based, Mycobacterium tuberculosis; conditions: for concentration effecting a 99% reduction in viability (MBC under low oxygen): 10 days incubation under non-replicating conditions, cfu readout; for concentration reducing viability of non-replicating M. tuberculosis by one log10: LORA
M. tuberculosis H37Rv [3] = assay: Aerobic MBC99; assay type: cell-based, Mycobacterium tuberculosis; conditions: for classification from MBC99 versus MIC: MBC99 approximately two-fold higher than MIC; for MBC99: aerobic, H37Rv, minimum concentration that kills 99% of organisms
Vero cells = assay: Toxicity against mammalian cells (Vero); assay type: cell-based, African green monkey; conditions: for IC50: Vero cells, read-out: Vero cell IC50; for in vitro mammalian cell toxicity: at 100-fold their MBC; for cytotoxicity: highest testing concentration (32 μM)
Description: Cytoxicities of H-14 and H-16 against mammalian cells were evaluated by testing against Vero cells, an African green monkey kidney cell line (Table 18). No cytoxicity was found for either compound at even the highest testing concentration (32 μM).

M. tuberculosis X003899 = conditions: IndoOceanic clade, strain X003899
M. smegmatis = assay: Antibacterial selectivity MIC; assay type: cell-based, Mycobacterium smegmatis; conditions: compared with M. tuberculosis
Description: (§1) Selectivities of H-14 and H-16 were determined by screening them against Escherichia coli, a Gram-negative bacterium, Staphylococcus aureus, a Gram-positive bacterium, Candida albicans, a yeast, and six mycobacterial species (Table 16).

M. tuberculosis X004244 = conditions: East Asian clade, strain X004244
M. abscesses = assay: Antibacterial selectivity MIC; assay type: cell-based, Mycobacterium abscessus; conditions: for activity: M. abscesses, compared with the other mycobacteria; for MIC: M. abscessus
Description: as §1

Escherichia coli = assay: Antibacterial selectivity MIC; assay type: cell-based; conditions: E. coli; for activity: at 31 μM
Description: as §1

Candida albicans = assay: Antibacterial selectivity MIC; assay type: cell-based; conditions: C. albicans; for activity: at 31 μM
Description: as §1

Staphylococcus aureus = assay: Antibacterial selectivity MIC; assay type: cell-based; conditions: S. aureus; for activity: at 31 μM
Description: as §1

M. tuberculosis X001354 = conditions: East African Indian clade, strain X001354
M. tuberculosis X005282 = conditions: Euro-American clade, strain X005282
M. tuberculosis X004439 = conditions: East Asian clade, strain X004439
M. tuberculosis X005319 = conditions: Euro-American clade, strain X005319
M. tuberculosis H37Rv [4] = assay: microbe, parasite or virus in culture; conditions: Mycobacterium tuberculosis
M. tuberculosis H37Pv = assay type: cell-based, Mycobacterium tuberculosis
[5] = aerobic, replicating M. tuberculosis H37Rv, concentration inhibiting growth by 90%

## C=C(NC(=O)C(=C)NC(=O)c1csc(C2=N[C@@H]3c4csc(n4)[C@H]4NC(=O)c5csc(n5)[C@H]([C@](C)(O)[C@@H](C)O)NC(=O)[C@H]5CSC(=N5)/C(=C/C)NC(=O)[C@H]([C@@H](C)O)NC(=O)c5csc(n5)[C@]3(CC2)NC(=O)[C@H](C)NC(=O)C(=C)NC(=O)[C@H](C)NC(=O)[C@H]([C@@H](C)CC)N[C@@H]2C=Cc3c([C@H](C)O)cc(nc3[C@H]2O)C(=O)O[C@@H]4C)n1)C(N)=O [Thiostrepton]
Nonomuraea sp. MJM5123
  Growth in the presence of antibiotics: −
  susceptibility of MJM5123 to the antibiotic: susceptible

## CN[C@@H]1[C@@H](O[C@H]2O[C@H](CO)[C@@H](N)[C@H](O)[C@H]2O)OC2C[C@@H](N)[C@@H](O[C@H]3[C@H](O)[C@@H](O)[C@H](N)C[C@@H]3N)OC2[C@@H]1O (stereo partly shown) [Apramycin]
Nonomuraea sp. MJM5123
  Growth in the presence of antibiotics: −
  susceptibility of MJM5123 to the antibiotic: susceptible

## NC[C@H]1O[C@H](O[C@H]2[C@H](O)[C@@H](O[C@H]3O[C@H](CO)[C@@H](O)[C@H](N)[C@H]3O)[C@H](N)C[C@@H]2N)[C@H](O)[C@@H](O)[C@@H]1O [Kanamycin]
Nonomuraea sp. MJM5123
  Growth in the presence of antibiotics: −

## CC1(C)S[C@@H]2[C@H](NC(=O)[C@H](N)c3ccccc3)C(=O)N2[C@H]1C(=O)O [Ampicillin]
Nonomuraea sp. MJM5123
  Growth in the presence of antibiotics: +
  susceptibility of MJM5123 to the antibiotic: resistant

## CCC(C)C(C(=O)NC1C(=O)N(C)C(C(C)O)C(=O)NC(C(C)C)C(=O)N(C)C(CC(C)C)C(=O)NC(C(C)C)C(=O)N(C)C(C(C)C)C(=O)N(C)C(Cc2c[nH]c3cccc(OC)c23)C(=O)NC(C(C)C)C(=O)NC(Cc2ccccc2)C(=O)NC(C(C)C)C(=O)OC1C)N(C)C(=O)C(NC(=O)C(C(C)C)N(C)C)C(C)C (stereo not shown) [H-16] (ξNMe2Val-V[NMeI]T[NMeT]V[NMeL]V[NMeV][NMeTrp(4-OMe)]VFV; ester 3-C; configuration not given here)
M. tuberculosis H37Rv [1]; H37Rv reference in Table 15
  MIC: 0.37 µM (≈ 0.586 µg/mL)
M. tuberculosis H37Rv [1]; H37Rv reference in Table 19
  MIC: 0.16 µM (≈ 0.253 µg/mL)
M. tuberculosis H37Rv [1]; [5]
  MIC: 0.16 µM (≈ 0.253 µg/mL)
[2]
  concentration effecting a 99% reduction in viability (MBC under low oxygen): approximately 1.5 μM
  concentration reducing viability of non-replicating M. tuberculosis by one log10: approximately 1.5 μM
M. tuberculosis H37Rv [3]
  classification from MBC99 versus MIC: bactericidal
  MBC99: 0.19 µM (≈ 0.301 µg/mL)
Vero cells
  IC50: > 32 µM
  in vitro mammalian cell toxicity: no in vitro mammalian cell toxicity
  cytotoxicity: No cytoxicity
M. tuberculosis X003899
  MIC: 0.19 µM (≈ 0.301 µg/mL)
M. smegmatis
  activity: activity was lower
M. tuberculosis X004244
  MIC: 0.09 µM (≈ 0.143 µg/mL)
M. abscesses
  activity: significantly less active
  MIC: >32 µM
Escherichia coli
  MIC: >32 µM
  antimicrobial activity: Neither of the compounds displayed antimicrobial activity
  activity: no activity
Candida albicans
  MIC: >32 µM
  antimicrobial activity: Neither of the compounds displayed antimicrobial activity
  activity: no activity
Staphylococcus aureus
  MIC: >32 µM
  antimicrobial activity: Neither of the compounds displayed antimicrobial activity
  activity: no activity
M. tuberculosis X001354
  MIC: 0.37 µM (≈ 0.586 µg/mL)
M. tuberculosis X005282
  MIC: 0.14 µM (≈ 0.222 µg/mL)
M. tuberculosis X004439
  MIC: 0.19 µM (≈ 0.301 µg/mL)
M. tuberculosis X005319
  MIC: 0.34 µM (≈ 0.539 µg/mL)

## CN[C@H](CC(C)C)C(=O)N[C@H]1C(=O)N[C@@H](CC(N)=O)C(=O)N[C@H]2C(=O)N[C@H]3C(=O)N[C@H](C(=O)N[C@H](C(=O)O)c4cc(O)cc(O)c4-c4cc3ccc4O)[C@H](O)c3ccc(c(Cl)c3)Oc3cc2cc(c3O[C@@H]2O[C@H](CO)[C@@H](O)[C@H](O)[C@H]2O[C@H]2C[C@](C)(N)[C@H](O)[C@H](C)O2)Oc2ccc(cc2Cl)[C@H]1O [Vancomycin]
Nonomuraea sp. MJM5123
  Growth in the presence of antibiotics: −
  susceptibility of MJM5123 to the antibiotic: susceptible

## CO[C@H]1/C=C/O[C@@]2(C)Oc3c(C)c(O)c4c(O)c(c(/C=N/N5CCN(C)CC5)c(O)c4c3C2=O)NC(=O)/C(C)=C\C=C\[C@H](C)[C@H](O)[C@@H](C)[C@@H](O)[C@@H](C)[C@H](OC(C)=O)[C@@H]1C [rifampin]
M. tuberculosis H37Rv [4]
  MIC: 0.09 µM (≈ 0.0741 µg/mL)

## NNC(=O)c1ccncc1 [isoniazid]
M. tuberculosis H37Rv [4]
  MIC: 0.47 µM (≈ 0.0645 µg/mL)

## CCC(C)C(C(=O)NC1C(=O)N(C)C(C(C)O)C(=O)NC(C(C)C)C(=O)N(C)C(CC(C)C)C(=O)NC(C(C)C)C(=O)N(C)C(C(C)C)C(=O)N(C)C(Cc2c[nH]c3cccc(OC)c23)C(=O)NC(C(C)C)C(=O)NC(C(O)c2ccccc2)C(=O)NC(C(C)C)C(=O)OC1C)N(C)C(=O)C(NC(=O)C(C(C)C)N(C)C)C(C)C (stereo not shown) [H-14] (ξNMe2Val-V[NMeI]T[NMeT]V[NMeL]V[NMeV][NMeTrp(4-OMe)]V[X1]V; ester 3-C; configuration not given here)
M. tuberculosis H37Rv [1]; H37Rv reference in Table 15
  MIC: 0.38 µM (≈ 0.608 µg/mL)
M. tuberculosis H37Rv [1]; H37Rv reference in Table 19
  MIC: 0.16 µM (≈ 0.256 µg/mL)
M. tuberculosis H37Rv [1]; [5]
  MIC: 0.16 µM (≈ 0.256 µg/mL)
[2]
  concentration effecting a 99% reduction in viability (MBC under low oxygen): approximately 1.5 μM
  concentration reducing viability of non-replicating M. tuberculosis by one log10: approximately 1.5 μM
M. tuberculosis H37Rv [3]
  classification from MBC99 versus MIC: bactericidal
  MBC99: 0.34 µM (≈ 0.544 µg/mL)
Vero cells
  IC50: > 32 µM
  in vitro mammalian cell toxicity: no in vitro mammalian cell toxicity
  cytotoxicity: No cytoxicity
M. tuberculosis X003899
  MIC: 0.23 µM (≈ 0.368 µg/mL)
M. smegmatis
  activity: activity was lower
M. tuberculosis X004244
  MIC: 0.13 µM (≈ 0.208 µg/mL)
M. abscesses
  activity: significantly less active
  MIC: >63 µM
Escherichia coli
  MIC: >32 µM
  antimicrobial activity: Neither of the compounds displayed antimicrobial activity
  activity: no activity
Candida albicans
  MIC: >32 µM
  antimicrobial activity: Neither of the compounds displayed antimicrobial activity
  activity: no activity
Staphylococcus aureus
  MIC: >32 µM
  antimicrobial activity: Neither of the compounds displayed antimicrobial activity
  activity: no activity
M. tuberculosis X001354
  MIC: 0.38 µM (≈ 0.608 µg/mL)
M. tuberculosis X005282
  MIC: 0.14 µM (≈ 0.224 µg/mL)
M. tuberculosis H37Pv; 0.5% BSA
  MIC vs. M. tuberculosis: 0.16 µM (≈ 0.256 µg/mL)
M. tuberculosis H37Pv; 4% BSA
  MIC vs. M. tuberculosis: 0.58 µM (≈ 0.928 µg/mL)
M. tuberculosis H37Pv; 10% BSA
  MIC vs. M. tuberculosis: 0.36 µM (≈ 0.576 µg/mL)
M. tuberculosis X004439
  MIC: 0.29 µM (≈ 0.464 µg/mL)
M. tuberculosis X005319
  MIC: 0.36 µM (≈ 0.576 µg/mL)
